In one data set the target is T1, PICK1 (Rattus norvegicus, UniProt Q9EP80).
T1 construct: Full length rat PICK1 (pET41) was prepared as described earlier; inferred from pET41 vector and Glutathione-Sepharose capture) (N, cleaved yes); made in house; host or cells: E. coli BL21-DE3-pLysS
Nature of the data set: Size exclusion chromatography of PICK1 in complex with inhibitor. As to conditions: 40 μM PICK1 with 10 μM inhibitor (4:1). On the procedure: Full length rat PICK1 (pET41) was prepared as described earlier (Madsen et al., 2005). In brief, PICK1 was expressed in BL21-DE3-pLysS cells and grown at 37° C., induced at OD600=0.6 with 1 mM Isopropyl β-D-1-thiogalactopyranoside (IPTG) and grown 16 hrs at 20° C. Cultures were harvested and re-suspended in 50 mM trisaminomethane (Tris), 125 mM NaCl, 2 mM Dithiothreitol (DTT, Sigma), 1% Triton X-100 (Sigma), 20 μg/mL DNAse 1 and 1⁄2 a tablet cOmplete protease inhibitor cocktail (Roche) pr. 1 L culture. The re-suspended pellets were frozen at -80° C. for later purification. […] Each column was sealed and 0.075 U/μL, Novagen® was added for cleavage 0/N at 4° C. under gentle rotation. PICK1 was eluted on ice and absorption at 280 nm was measured on TECAN plate reader or on a NanoDrop3000. The protein concentration was determined using lambert beers law (A=ε[…]=32320 (cm*mol/L)^-1. Size exclusion chromatography: Size exclusion chromatography was performed using an Äkta purifier with a Superdex200 Increase 10/300 column, where 500 μL of 40 μM PICK1 in absence or presence of 10 μM […] was loaded to the column. Absorbance profile was measured at 280 nm and plotted against elution volume using Graph Pad Prism 8.3.

Data set [1] deals with neuropathic pain (SNI model). Nature of the data set: Spared Nerve Injury (SNI) model of neuropathic pain, von Frey. In kind it is in vivo, mice. The following applies: for relief of evoked pain (paw withdrawal threshold): day 7 after SNI, tested 1-6 h. On the procedure:
Neuropathic pain. The SNI pain experiment was performed by Phenotype Expertise-Pain and CNS behaviour CRO under supervision of […]). Study was performed on 8 weeks old […] male mice (Charles River). The spared nerve injury surgery was performed on anaesthetized mice. Ligature and transection of the common peroneal and tibial distal branches of the sciatic nerve was performed, leaving the sural branch intact. […] The experimenter was blinded to mice treatment. […] All the compounds were diluted in PBS and administered s.c. at 10 μL/g. Statistical analysis was performed using GraphPad Prism 6.0. Two-way RM ANOVA followed by Bonferroni's post-hoc test. Significance level set to p<0.05. Neuropathic pain. Study was performed on 8 weeks old […] male mice (Charles River). The spared nerve injury surgery was performed on anaesthetized mice. Ligature and transection of the common peroneal and tibial distal branches of the sciatic nerve was performed, leaving the sural branch intact. […] The experimenter was blinded to mice treatment. […] All the compounds were diluted in PBS and administered 10 μmol/kg (10 μL/gram) […]. at 10 μL/g. Statistical analysis was performed using GraphPad Prism 6.0. Two-way RM ANOVA followed by Bonferroni's post-hoc test. Significance level set to p<0.05. Neuropathic pain. Study was performed on 8 weeks old […] male mice (Charles River). The spared nerve injury surgery was performed on anaesthetized mice. Ligature and transection of the common peroneal and tibial distal branches of the sciatic nerve was performed, leaving the sural branch intact. […] The mice were testes in von Frey monthly and the hyperalgesic response at 52 weeks was sustained. […] The experimenter was blinded to mice treatment. After injection, mechanical threshold was measured, 2 and 5 hrs. All the compounds were diluted in PBS and administered s.c. at 10 μL/g, 30 μmol/kg. Statistical analysis was performed using GraphPad Prism 6.0.

Data set [2] has as its system spontaneous inflammatory pain (CFA model). Nature of the data set: Single exposure place preference (sePP), spontaneous pain. The format is in vivo, mice. On the procedure:
Inflammatory pain (CFA model): Animals were habituated to the experimental room for a minimum of 60 min before initiation of the experiment. Mechanical pain threshold of both hind paws was determined by von Frey measurements. Injury was induced on the right hind paw, whereas the contralateral left hind paw was used as internal control of the animal. […] In the current experiment filaments in ascending order were applied to the frontocentral plantar surface of the hind paws. […] Each von Frey filament was applied five times with adequate resting periods between each application and number of withdrawals recorded. The withdrawal threshold was determined as the von Frey filament eliciting at least 3 positive trials out of the 5 applications in two consecutive filaments. A positive trial was defined as sudden paw withdrawal, flinching and/or paw licking induced by the filament. The inflammatory pain was induced by injection of 50 μL undiluted Complete Freund's Adjuvant (CFA) ([…], Sigma) unilaterally into the intraplantar surface of the right hind paw. All intraplantar injections were performed with an insulin needle (0.3 mL BD Micro-Fine), while the animal was under isoflurane anesthesia (2%) for maximum 60 seconds. […] Statistical analysis: was performed using GraphPad Prism 6.0. Student's t-test. Significance level set to p<0.05. […] All mice from a cage were tested at the same time, but not all given the same treatment. On exposure days, mice were weighed and injected s.c. with peptide (30 μmol/kg) or vehicle (10 μL/g) and immediately placed into the designated compartment for 60 min. The test group was exposed to peptide in the least preferred compartment, and vehicle (PBS) in the preferred compartment, whereas the control group was injected with vehicle in both compartments. […] Time spent in the different compartments was measured by Ethovision (Noldus, Wageningen, Netherlands). An additional experiment was run on animals without injury, showing no mPD5-dependent preference change

The nature of data set [3]: Plasma exposure after s.c. injection, LC-MS. In kind it is in vivo. As to conditions: male, C57BL/6N, mouse, sc; for Cmax: at 1 h, read-out: maximal plasma concentration. On the procedure: Three point on the down-slope was determined from 3 points on the elimination phase.

The results in this text go back to patent US20230346948A1, “Lipid conjugated peptide inhibitors of PICK1” (University of Copenhagen, priority 2020, published 2023).

Read-outs that look alike come from different tables or passages of the source.

T1 sequence (Q9EP80 whole entry): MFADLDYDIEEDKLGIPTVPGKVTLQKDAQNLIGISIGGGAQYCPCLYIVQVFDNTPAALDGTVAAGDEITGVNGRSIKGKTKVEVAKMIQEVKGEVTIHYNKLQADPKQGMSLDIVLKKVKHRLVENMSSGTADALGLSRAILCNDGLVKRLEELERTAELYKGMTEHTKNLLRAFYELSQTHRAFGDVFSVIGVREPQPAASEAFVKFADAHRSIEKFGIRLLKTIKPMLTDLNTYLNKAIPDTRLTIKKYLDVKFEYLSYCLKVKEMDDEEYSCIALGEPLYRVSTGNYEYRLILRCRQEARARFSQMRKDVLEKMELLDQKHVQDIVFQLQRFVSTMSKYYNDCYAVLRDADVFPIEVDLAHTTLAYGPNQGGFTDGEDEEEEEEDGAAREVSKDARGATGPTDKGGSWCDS

Take `CCCCCCCCCCCCCC(=O)N(CCOCCOCCC(=O)N[C@@H](Cc1c[nH]cn1)C(=O)N[C@@H](Cc1c[nH]c2ccccc12)C(=O)N[C@@H](CC(C)C)C(=O)N[C@@H](CCCCN)C(=O)N[C@H](C(=O)O)C(C)C)CCOCCOCCC(=O)N[C@@H](Cc1c[nH]cn1)C(=O)N[C@@H](Cc1c[nH]c2ccccc12)C(=O)N[C@@H](CC(C)C)C(=O)N[C@@H](CCCCN)C(=O)N[C@H](C(=O)O)C(C)C` [myr-NPEG4-(HWLKV)2]: the “oligomeric state of PICK1 upon binding (SEC elution volume)” value on PICK1 is “forms higher order oligomeric structures of PICK1 upon binding”. For the same compound, the “paw withdrawal threshold of uninjured contralateral paw” value in data set [1] (SNI model, Example 8) is on record as “remained unaltered”. Further, the “relief of evoked pain (paw withdrawal threshold)” value in data set [1] (s.c. 2 μmol/kg) is reported as “no significant pain relief”; in data set [1] (s.c. 10 μmol/kg), “significant pain relief up to 3 hours post injection”. For the same compound, the “relief of evoked pain (paw withdrawal threshold), chronic pain” value in data set [1] (s.c. 30 μmol/kg, 52 weeks after SNI, tested 2 and 5 h) is given as “highly significant effect of the treatment at 5 hrs”. Also, in data set [2] (CFA-injured mice, s.c. 30 μmol/kg, single exposure), the “place preference, time in drug-paired compartment vs vehicle-treated controls” value is given as “spent significantly more time in the myr-NPEG4-(HWLKV)2-paired compartment”. Also, in data set [2] (mice without injury (Naïve), s.c. 30 μmol/kg, single exposure), the place preference result is recorded as “no change in preference”. The abuse liability entry in data set [2] (mouse, in vivo) is “lack of abuse liability”. Moreover, the figures for the Cmax in data set [3] (s.c. 3.75 mg/kg (2 μmol/kg)), in data set [3] (s.c. 18.8 mg/kg (10 μmol/kg)) and in data set [3] (s.c. 93.8 mg/kg (50 μmol/kg)) were 1450 ± 106 ng/mL, 6170 ± 508 ng/mL and 20300 ± 642 ng/mL, respectively. Besides, the half-life in data set [3] (summary over doses) is 30 to 45 min.
